Assay results as given in patent US20260022118A1, “HETEROCYCLIC COMPOUNDS AS NRAS INHIBITORS” (Board of Regents, The University of Texas System, priority 2023, published 2026).
Each block holds one molecule with its values, some of them ahead of it.

What was measured:
[1] = test system: THP-1 cells expressing G12D (NRAS G12D); assay: Inhibition of NRAS G12D-mediated phosphorylation of ERK (AlphaLISA p-ERK1/2) in THP-1 cells; type: cell-based; conditions: Homo sapiens, THP-1, 2 h, 2 hours incubation, HBSS with 0% or 10% FBS, p-ERK1/2 (Thr202/Tyr204) AlphaLISA, read-out: pERK THP-1 IC50
How it was run: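 THP-1 cells expressing NRAS G12D, seeded in HBSS with 0% or 10% FBS, were exposed to test compound (1% DMSO final) for 2 h. p-ERK1/2 (Thr202/Tyr204) read by AlphaLISA SureFire Ultra. IC50 from curves normalized to no-inhibitor (100%) and 1 μM trametinib (0%) controls.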

NRAS G12D C118S = NRAS G12D C118S (Homo sapiens (Human), UniProt P01111, C118S/G12D); assay: NRas G12D Surface Plasmon Resonance (SPR) binding assay; conditions: Avi-tagged biotinylated NRAS G12D C118S on streptavidin chip, 25° C., 1:1 kinetic or steady-state fit
How it was run: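 Biotinylated Avi-tagged NRAS G12D C118S was captured at about 600 RU on a streptavidin chip alongside a blank reference channel. Compounds were run as 10-point 1:3 dilution series in HBS-P+ pH 7.4 with 5 mM MgCl2 and 3% DMSO, using a 2–4% DMSO solvent correction. A control compound at 10 μM was injected periodically to check protein activity.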

Sequence of NRAS G12D C118S (P01111 whole entry G12D/C118S): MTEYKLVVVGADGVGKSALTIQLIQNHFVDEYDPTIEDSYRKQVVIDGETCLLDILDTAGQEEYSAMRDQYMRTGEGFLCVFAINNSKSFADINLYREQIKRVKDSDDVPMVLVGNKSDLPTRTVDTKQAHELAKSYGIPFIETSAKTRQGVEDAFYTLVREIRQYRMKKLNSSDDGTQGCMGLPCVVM

Compound: C#Cc1c(F)ccc2cc(O)cc(-c3ncc4c(C5[C@H]6CNC[C@@H]56)cn(CCO)c4c3F)c12 (stereo partly drawn) [Example 103, 4-(3-((1R,5S)-3-azabicyclo[3.1.0]hexan-6-yl)-7-fluoro-1-(2-hydroxyethyl)-1H-pyrrolo[3,2-c]pyridin-6-yl)-5-ethynyl-6-fluoronaphthalen-2-ol]
IC50 [1]: > 50000 nM
Kd (NRAS G12D C118S): 488 nM

Compound: C#Cc1c(F)ccc2cc(O)cc(-c3ncc4c([C@H]5[C@@H]6CNC[C@@H]65)c(C)n(C)c4c3F)c12 [Example 21, 4-(3-((1R,5S,6s)-3-azabicyclo[3.1.0]hexan-6-yl)-7-fluoro-1,2-dimethyl-1H-pyrrolo[3,2-c]pyridin-6-yl)-5-ethynyl-6-fluoronaphthalen-2-ol]
IC50 [1]: 13000 nM
Kd (NRAS G12D C118S): 1840 nM

Compound: C#Cc1c(F)ccc2cc(O)cc(-c3ncc4c(N5CC6CCC(C5)N6)nn(CC)c4c3F)c12 [Example 8, 4-(3-(3,8-diazabicyclo[3.2.1]octan-3-yl)-1-ethyl-7-fluoro-1H-pyrazolo[4,3-c]pyridin-6-yl)-5-ethynyl-6-fluoronaphthalen-2-ol]
IC50 [1]: 11100 nM
Kd (NRAS G12D C118S): 1920 nM

Compound: C#Cc1c(F)ccc2cc(O)cc(-c3ncc4c(N5CC(N(C)C)C5)nn(C)c4c3F)c12 [Example 33, 4-[3-[3-(dimethylamino)azetidin-1-yl]-7-fluoro-1-methyl-pyrazolo[4,3-c]pyridin-6-yl]-5-ethynyl-6-fluoro-naphthalen-2-ol]
IC50 [1]: > 50000 nM
Kd (NRAS G12D C118S): 8750 nM

Compound: C#Cc1c(F)ccc2cc(O)cc(-c3ncc4c(c3F)n(C)c(=O)n4C3[C@H]4CNC[C@@H]34)c12 (stereo partly drawn) [Example 45, 3-[(1R,5S)-3-azabicyclo[3.1.0]hexan-6-yl]-6-(8-ethynyl-7-fluoro-3-hydroxy-1-naphthyl)-7-fluoro-1-methyl-imidazo[4,5-c]pyridin-2-one]
IC50 [1]: > 10000 nM
Kd (NRAS G12D C118S): 9940 nM

Compound: C#Cc1c(F)ccc2cc(O)cc(-c3nc(OCC(C)C)c4c([C@H]5[C@@H]6CNC[C@@H]65)nn(C5CC5)c4c3F)c12 [Example 100, 4-(3-((1R,5S,6r)-3-azabicyclo[3.1.0]hexan-6-yl)-1-cyclopropyl-7-fluoro-4-isobutoxy-1H-pyrazolo[4,3-c]pyridin-6-yl)-5-ethynyl-6-fluoronaphthalen-2-ol]
IC50 [1]: 1760 nM
Kd (NRAS G12D C118S): 704 nM

Compound: C#Cc1c(F)ccc2cc(O)cc(-c3ncc4c([C@H]5[C@@H]6CNC[C@@H]65)nn([C@@H]5C[C@@H]5C)c4c3F)c12 [Example 104, 4-(3-((1R,5S,6r)-3-azabicyclo[3.1.0]hexan-6-yl)-7-fluoro-1-((1R,2S)-2-methylcyclopropyl)-1H-pyrazolo[4,3-c]pyridin-6-yl)-5-ethynyl-6-fluoronaphthalen-2-ol]
IC50 [1]: 12500 nM
Kd (NRAS G12D C118S): 1170 nM

Compound: C#Cc1c(F)ccc2cc(O)cc(-c3ncc4c(N5C[C@@H]6C[C@H](O)[C@H](C5)N6)nn(C)c4c3F)c12 [Example 57, (1S,5S,6S)-3-(6-(8-ethynyl-7-fluoro-3-hydroxynaphthalen-1-yl)-7-fluoro-1-methyl-1H-pyrazolo[4,3-c]pyridin-3-yl)-3,8-diazabicyclo[3.2.1]octan-6-ol]
IC50 [1]: 17300 nM
Kd (NRAS G12D C118S): 737 nM

Compound: C#Cc1c(F)ccc2cc(O)cc(-c3ncc4c(c(C)cn4C4[C@H]5CNC[C@@H]45)c3F)c12 (stereo partly drawn) [Example 40, 4-[1-[(1R,5S)-3-azabicyclo[3.1.0]hexan-6-yl]-4-fluoro-3-methyl-pyrrolo[2,3-c]pyridin-5-yl]-5-ethynyl-6-fluoro-naphthalen-2-ol]
IC50 [1]: > 10000 nM
Kd (NRAS G12D C118S): 1130 nM

Compound: C#Cc1c(F)ccc2cc(O)cc(-c3ncc4c(C5=CC6CCC5CN6)nn(C)c4c3F)c12 (stereo not shown) [Example 42, 4-[3-(2-azabicyclo[2.2.2]oct-5-en-5-yl)-7-fluoro-1-methyl-pyrazolo[4,3-c]pyridin-6-yl]-5-ethynyl-6-fluoro-naphthalen-2-ol]
IC50 [1]: > 10000 nM
Kd (NRAS G12D C118S): 2980 nM

Next, values leading:

IC50 [1]: 394 nM
Kd (NRAS G12D C118S): 20.5 nM
Compound: C#Cc1c(F)ccc2cc(O)cc(-c3ncc4c([C@H]5[C@@H]6CNC[C@@H]65)nn(C5CC5)c4c3F)c12 [Example 4, 4-(3-((1R,5S,6r)-3-azabicyclo[3.1.0]hexan-6-yl)-1-cyclopropyl-7-fluoro-1H-pyrazolo[4,3-c]pyridin-6-yl)-5-ethynyl-6-fluoronaphthalen-2-ol 2,2,2-trifluoroacetate]

IC50 [1]: 547 nM
Kd (NRAS G12D C118S): 28.3 nM
Compound: C#Cc1c(F)ccc2cc(O)cc(-c3nc(NC)c4c([C@H]5[C@@H]6CNC[C@@H]65)nn(C5CC5)c4c3F)c12 [Example 76, 4-(3-((1R,5S,6r)-3-azabicyclo[3.1.0]hexan-6-yl)-1-cyclopropyl-7-fluoro-4-(methylamino)-1H-pyrazolo[4,3-c]pyridin-6-yl)-5-ethynyl-6-fluoronaphthalen-2-ol]

IC50 [1]: 4820 nM
Kd (NRAS G12D C118S): 435 nM
Compound: C#Cc1c(F)ccc2cc(O)cc(-c3ncc4c(c(C)cn4C4CC5CCC4CN5)c3F)c12 (stereo not shown) [Example 39, 4-[1-(2-azabicyclo[2.2.2]octan-5-yl)-4-fluoro-3-methyl-pyrrolo[2,3-c]pyridin-5-yl]-5-ethynyl-6-fluoro-naphthalen-2-ol]

IC50 [1]: 515 nM
Kd (NRAS G12D C118S): 18.5 nM
Compound: C#Cc1c(F)ccc2cc(O)cc(-c3ncc4c(N5CC6CCC5CN6)nn(C5CC5)c4c3F)c12 (stereo not shown) [Example 105, 4-(3-(2,5-diazabicyclo[2.2.2]octan-2-yl)-1-cyclopropyl-7-fluoro-1H-pyrazolo[4,3-c]pyridin-6-yl)-5-ethynyl-6-fluoronaphthalen-2-ol]

IC50 [1]: 227 nM
Kd (NRAS G12D C118S): 4.58 nM
Compound: C#Cc1c(F)ccc2cc(N)cc(-c3nc(CC)c4c([C@H]5[C@@H]6CNC[C@@H]65)nn(C5CC5)c4c3F)c12 [Example 88, 4-(3-((1R,5S,6r)-3-azabicyclo[3.1.0]hexan-6-yl)-1-cyclopropyl-4-ethyl-7-fluoro-1H-pyrazolo[4,3-c]pyridin-6-yl)-5-ethynyl-6-fluoronaphthalen-2-amine]

IC50 [1]: 438 nM
Kd (NRAS G12D C118S): 81.5 nM
Compound: C#Cc1c(F)ccc2cc(O)cc(-c3ncc4c(C5C6CNCC65)nn(C5CC5(F)F)c4c3F)c12 (stereo not shown) [Example 49, 4-[3-(3-azabicyclo[3.1.0]hexan-6-yl)-1-(2,2-difluorocyclopropyl)-7-fluoro-pyrazolo[4,3-c]pyridin-6-yl]-5-ethynyl-6-fluoro-naphthalen-2-ol]

IC50 [1]: 115 nM
Kd (NRAS G12D C118S): 18.8 nM
Compound: C#Cc1c(F)ccc2cc(O)cc(-c3nc(OC(C)C)c4c([C@H]5[C@@H]6CNC[C@@H]65)nn(C5CC5)c4c3F)c12 [Example 62, 4-(3-((1R,5S,6r)-3-azabicyclo[3.1.0]hexan-6-yl)-1-cyclopropyl-7-fluoro-4-isopropoxy-1H-pyrazolo[4,3-c]pyridin-6-yl)-5-ethynyl-6-fluoronaphthalen-2-ol]

IC50 [1]: 1300 nM
Kd (NRAS G12D C118S): 212 nM
Compound: C#Cc1c(F)ccc2cc(O)cc(-c3nc(CC(C)C)c4c([C@H]5[C@@H]6CNC[C@@H]65)nn(C5CC5)c4c3F)c12 [Example 73, 4-(3-((1R,5S,6r)-3-azabicyclo[3.1.0]hexan-6-yl)-1-cyclopropyl-7-fluoro-4-isobutyl-1H-pyrazolo[4,3-c]pyridin-6-yl)-5-ethynyl-6-fluoronaphthalen-2-ol]

IC50 [1]: 477 nM
Kd (NRAS G12D C118S): 15.8 nM
Compound: C#Cc1c(F)ccc2cc(O)cc(-c3nc(OC)c4c([C@H]5[C@@H]6CNC[C@@H]65)nn(C5CC5)c4c3F)c12 [Example 61, 4-(3-((1R,5S,6r)-3-azabicyclo[3.1.0]hexan-6-yl)-1-cyclopropyl-7-fluoro-4-methoxy-1H-pyrazolo[4,3-c]pyridin-6-yl)-5-ethynyl-6-fluoronaphthalen-2-ol]

IC50 [1]: 3100 nM
Kd (NRAS G12D C118S): 965 nM
Compound: C#Cc1c(F)ccc2cc(O)cc(-c3c(F)cc4c([C@H]5[C@@H]6CNC[C@@H]65)cn(C)c4c3F)c12 [Example 29, 4-(3-((1R,5S,6s)-3-azabicyclo[3.1.0]hexan-6-yl)-5,7-difluoro-1-methyl-1H-indol-6-yl)-5-ethynyl-6-fluoronaphthalen-2-ol]
